Data taken from the NIST ThermoML archive (doi:10.1016/j.jct.2009.04.004).
Numbers after ± are expanded uncertainties.

Test: molar heat capacity at constant pressure
Settings: 101.33 kPa, Crystal, Small sample (50 mg) DSC

[Na+].[O]=[Re](=[O])(=[O])[O-] [sodium perrhenate]
Settings	molar heat capacity at constant pressure [J/K/mol]
298.15 K	118.8 ± 2.4
323.15 K	122.2 ± 2.4
348.15 K	125.5 ± 2.5
373.15 K	128.9 ± 2.6
398.15 K	131.8 ± 2.6
423.15 K	135.1 ± 2.7
448.15 K	137.2 ± 2.7
473.15 K	139.7 ± 2.8
498.15 K	142.3 ± 2.8
523.15 K	144.8 ± 2.9
548.15 K	146.9 ± 2.9
573.15 K	148.1 ± 3
598.15 K	149.4 ± 3
